# Test results as given in ChEMBL document CHEMBL1649193, “Statins as potential antimalarial drugs: low relative potency and lack of synergy with conventional antimalarial drugs” (Antimicrob Agents Chemother, 2009).
# How the values were obtained:
# Type in all cases: functional, organism-based
# [1] = tested on: Plasmodium falciparum; assay: Antimalarial activity against chloroquine-sensitive Plasmodium falciparum 3D7 assessed as Plasmodium lactate dehydrogenase release after 48 hrs by colorimetry; conditions: 3D7, 48 h
# [2] = tested on: Plasmodium falciparum; assay: Antimalarial activity against chloroquine-resistant Plasmodium falciparum Dd2 assessed as Plasmodium lactate dehydrogenase release after 48 hrs by colorimetry; conditions: Dd2, 48 h
# [3] = tested on: Plasmodium falciparum; assay: Antimalarial activity against chloroquine-resistant Plasmodium falciparum E8B assessed as Plasmodium lactate dehydrogenase release after 48 hrs by colorimetry
SMILES,IC50 [1] [µM],IC90 [1] [µM],IC50 [2] [µM],IC90 [2] [µM],IC50 [3] [µM],IC90 [3] [µM]
CC(C)c1c(C(=O)Nc2ccccc2)c(-c2ccccc2)c(-c2ccc(F)cc2)n1CC[C@@H](O)C[C@@H](O)CC(=O)O [ATORVASTATIN],25,68,17,39,17,39
CC(C)c1nc(N(C)S(C)(=O)=O)nc(-c2ccc(F)cc2)c1/C=C/[C@@H](O)C[C@@H](O)CC(=O)O [ROSUVASTATIN],80,205,80,232,80,232
